Assay results published in PubChem BioAssay AID330 (DTP/NCI, 2004).
Values joined by “and” are separate entries in the source; they are usually repeats but may differ in a detail not shown here. Equal values may be shown once. Toxic doses and inconclusive results are not listed.

System: P388 leukemia ip, CD2F1 mice, survival T/C
Experiment: NCI In Vivo Anticancer Drug Screen. Data for tumor model P388 Leukemia (intraperitoneal) in CD2F1 (CDF1) mice
Details: endpoint: median survival time, higher = longer survival
Outline: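 Mice carrying the transplanted tumor received test compound or vehicle. Survival was recorded in each group, and the value is the treated-group measurement divided by that of the vehicle-treated control group.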

[1] = dose: 12.5 mg/kg/injection, schedule: Q01DX009 (ip), vehicle: Klucel (hydroxypropylcellulose) (HPC)
[2] = dose: 25.0 mg/kg/injection, schedule: Q01DX009 (ip), vehicle: Klucel (hydroxypropylcellulose) (HPC)
[3] = dose: 50.0 mg/kg/injection, schedule: Q01DX009 (ip), vehicle: Klucel (hydroxypropylcellulose) (HPC)
[4] = dose: 100.0 mg/kg/injection, schedule: Q01DX009 (ip), vehicle: Klucel (hydroxypropylcellulose) (HPC)
[5] = dose: 100.0 mg/kg/injection, schedule: Q04DX002 (ip), vehicle: saline with Tween-80
[6] = dose: 200.0 mg/kg/injection, schedule: Q04DX002 (ip), vehicle: saline with Tween-80
[7] = dose: 400.0 mg/kg/injection, schedule: Q04DX002 (ip), vehicle: saline with Tween-80
[8] = dose: 50.0 mg/kg/injection, schedule: Q01DX005 (ip), vehicle: saline with Tween-80
[9] = dose: 100.0 mg/kg/injection, schedule: Q01DX005 (ip), vehicle: saline with Tween-80
[10] = dose: 50.0 mg/kg/injection, schedule: Q01DX009 (ip), vehicle: saline
[11] = dose: 100.0 mg/kg/injection, schedule: Q01DX009 (ip), vehicle: saline
[12] = dose: 50.0 mg/kg/injection, schedule: Q01DX005 (ip), vehicle: saline
[13] = dose: 100.0 mg/kg/injection, schedule: Q01DX005 (ip), vehicle: saline
[14] = dose: 200.0 mg/kg/injection, schedule: Q01DX005 (ip), vehicle: saline
[15] = dose: 60.0 mg/kg/injection, schedule: Q01DX005 (ip), vehicle: saline with Tween-80
[16] = dose: 120.0 mg/kg/injection, schedule: Q01DX005 (ip), vehicle: saline with Tween-80
[17] = dose: 240.0 mg/kg/injection, schedule: Q01DX005 (ip), vehicle: saline with Tween-80
[18] = dose: 50.0 mg/kg/injection, schedule: Q01DX005 (ip), vehicle: Klucel (hydroxypropylcellulose) (HPC)
[19] = dose: 100.0 mg/kg/injection, schedule: Q01DX005 (ip), vehicle: Klucel (hydroxypropylcellulose) (HPC)
[20] = dose: 12.5 mg/kg/injection, schedule: Q01DX009 (ip), vehicle: saline with Tween-80
[21] = dose: 12.5 mg/kg/injection, schedule: Q01DX005 (ip), vehicle: saline with Tween-80
[22] = dose: 25.0 mg/kg/injection, schedule: Q01DX005 (ip), vehicle: saline with Tween-80
[23] = dose: 50.0 mg/kg/injection, schedule: Q01DX009 (ip), vehicle: saline with Tween-80
[24] = dose: 100.0 mg/kg/injection, schedule: Q01DX009 (ip), vehicle: saline with Tween-80
[25] = dose: 200.0 mg/kg/injection, schedule: Q01DX009 (ip), vehicle: saline with Tween-80

O=c1nc2c3[nH]cnc3ncn2o1
T/C [1]: 101 % of control | T/C [2]: 106 % of control | T/C [3]: 101 % of control and 93 % of control | T/C [4]: 105 % of control

COP(=S)(OC)SCc1cc(=O)n2c(C)cccc2n1
T/C (dose: 6.25 mg/kg/injection, schedule: Q01DX005 (ip), vehicle: distilled water + alcohol): 102 % of control | T/C (dose: 12.5 mg/kg/injection, schedule: Q01DX005 (ip), vehicle: distilled water + alcohol): 100 % of control | T/C (dose: 25.0 mg/kg/injection, schedule: Q01DX005 (ip), vehicle: distilled water + alcohol): 102 % of control

CC1=NOC(=O)C1N=Nc1ccc(Br)cc1C (centres undefined)
T/C [5]: 101 % of control | T/C (dose: 100.0 mg/kg/injection, schedule: Q05DX002 (ip), vehicle: saline with Tween-80): 99 % of control | T/C [6]: 98 % of control | T/C (dose: 200.0 mg/kg/injection, schedule: Q05DX002 (ip), vehicle: saline with Tween-80): 99 % of control | T/C [7]: 102 % of control

CC(=O)N1C=Cc2ccccc2C1C1NC=Cc2ccccc21 (centres undefined)
T/C [8]: 96 % of control | T/C [9]: 94 % of control | T/C (dose: 200.0 mg/kg/injection, schedule: Q01DX005 (ip), vehicle: saline with Tween-80): 88 % of control

N=C(N)c1ccc(-c2[nH]c3cc(C(=N)N)ccc3c2N)cc1
T/C (dose: 6.25 mg/kg/injection, schedule: Q04DX003 (ip), vehicle: saline): 86 % of control | T/C (dose: 12.5 mg/kg/injection, schedule: Q04DX003 (ip), vehicle: saline): 88 % of control | T/C (dose: 25.0 mg/kg/injection, schedule: Q04DX003 (ip), vehicle: saline): 92 % of control

C[C@]12CCC(=O)C=C1CC[C@H]1[C@@H]3C[C@@H](O)[C@](O)(C(=O)CO)[C@@]3(C)C[C@H](O)[C@@]12F
T/C (dose: 25.0 mg/kg/injection, schedule: Q01DX009 (ip), vehicle: saline): 109 % of control | T/C [10]: 109 % of control | T/C [11]: 109 % of control

C#CCOCCCC(=C)C
T/C (dose: 3.12 mg/kg/injection, schedule: Q01DX005 (ip), vehicle: saline): 103 % of control | T/C (dose: 6.25 mg/kg/injection, schedule: Q01DX005 (ip), vehicle: saline): 99 % of control | T/C (dose: 12.5 mg/kg/injection, schedule: Q01DX005 (ip), vehicle: saline): 100 % of control | T/C (dose: 25.0 mg/kg/injection, schedule: Q01DX005 (ip), vehicle: saline): 100 % of control

CNc1ccc(/C=C/c2ccnc3ccccc23)cc1
T/C (dose: 3.12 mg/kg/injection, schedule: Q01DX009 (ip), vehicle: Klucel (hydroxypropylcellulose) (HPC)): 95 % of control and 98 % of control | T/C (dose: 6.25 mg/kg/injection, schedule: Q01DX009 (ip), vehicle: Klucel (hydroxypropylcellulose) (HPC)): 108 % of control and 111 % of control and 112 % of control | T/C [1]: 113 % of control and 97 % of control | T/C [2]: 109 % of control and 87 % of control

CC1CN1P(=O)(OCCC#N)N1CC1C (centres undefined)
T/C (dose: 25.0 mg/kg/injection, schedule: Q01DX009 (ip), vehicle: other): 104 % of control | T/C (dose: 44.0 mg/kg/injection, schedule: Q04DX003 (ip), vehicle: other): 118 % of control | T/C (dose: 50.0 mg/kg/injection, schedule: Q01DX009 (ip), vehicle: other): 110 % of control | T/C (dose: 66.0 mg/kg/injection, schedule: Q04DX003 (ip), vehicle: other): 118 % of control | T/C (dose: 100.0 mg/kg/injection, schedule: Q01DX009 (ip), vehicle: other): 165 % of control and 177 % of control | T/C (dose: 150.0 mg/kg/injection, schedule: Q04DX003 (ip), vehicle: other): 163 % of control

C[C@@H](O)[C@@H]1NC(=O)[C@H]([C@@H](C)O)NC1=O
T/C [12]: 99 % of control | T/C [13]: 99 % of control | T/C [14]: 99 % of control

COc1cc2c(c(C3C(=O)N(C)c4ccc(Br)cc43)c1OC)OCO2 (centres undefined)
T/C [15]: 95 % of control | T/C [16]: 91 % of control | T/C [17]: 98 % of control

OCCN1CCN(CCCN2c3cc(Cl)ccc3Sc3sccc32)CC1
T/C [18]: 92 % of control | T/C [12]: 100 % of control | T/C [19]: 90 % of control | T/C [13]: 106 % of control

CC1(C)CC[C@]2(C(=O)O)CC[C@]3(C)C(=CC[C@@H]4[C@@]5(C)CC[C@H](O)C(C)(C)[C@@H]5CC[C@]43C)[C@@H]2C1
T/C [20]: 108 % of control | T/C (dose: 25.0 mg/kg/injection, schedule: Q01DX009 (ip), vehicle: saline with Tween-80): 99 % of control

Cc1cc(=O)[nH][nH]1
T/C [5]: 97 % of control | T/C [6]: 100 % of control | T/C [7]: 94 % of control

Nc1ccc(O)c2c1C(=O)c1c(O)c(S(=O)(=O)O)cc(N)c1C2=O
T/C (dose: 25.0 mg/kg/injection, schedule: Q01DX005 (ip), vehicle: Klucel (hydroxypropylcellulose) (HPC)): 108 % of control | T/C [18]: 102 % of control | T/C [19]: 105 % of control | T/C (dose: 200.0 mg/kg/injection, schedule: Q01DX005 (ip), vehicle: Klucel (hydroxypropylcellulose) (HPC)): 102 % of control

C/C(=N\NC(=S)N1CCC(C)CC1)c1nccs1
T/C [21]: 106 % of control | T/C [22]: 116 % of control | T/C [8]: 118 % of control

COC(=O)c1cc2c(oc1=O)-c1ccccc1N(C=O)C2
T/C [15]: 86 % of control | T/C [16]: 88 % of control | T/C [17]: 98 % of control

N#CC1CCCC(CCc2ccccc2)(c2ccccc2)C1=N (centres undefined)
T/C (dose: 50.0 mg/kg/injection, schedule: Q01DX001 (ip), vehicle: Klucel (hydroxypropylcellulose) (HPC)): 100 % of control | T/C (dose: 100.0 mg/kg/injection, schedule: Q01DX001 (ip), vehicle: Klucel (hydroxypropylcellulose) (HPC)): 99 % of control and 101 % of control | T/C (dose: 200.0 mg/kg/injection, schedule: Q01DX001 (ip), vehicle: Klucel (hydroxypropylcellulose) (HPC)): 91 % of control | T/C (dose: 400.0 mg/kg/injection, schedule: Q01DX001 (ip), vehicle: Klucel (hydroxypropylcellulose) (HPC)): 102 % of control and 92 % of control

CC1(C)OC(=O)N(CO)C1=O
T/C [10]: 109 % of control | T/C [11]: 119 % of control | T/C (dose: 200.0 mg/kg/injection, schedule: Q01DX009 (ip), vehicle: saline): 100 % of control

Cc1cc(=O)n2c(n1)Nc1ccc(Cl)cc1C2
T/C [23]: 100 % of control | T/C [24]: 98 % of control

O=C(Nc1cccc(Cl)c1)ON1C(=O)C2C(C1=O)C1(Cl)C(Cl)C(Cl)C2(Cl)C1(Cl)Cl (centres undefined)
T/C [23]: 103 % of control and 110 % of control | T/C [24]: 110 % of control and 112 % of control and 120 % of control | T/C [25]: 106 % of control and 124 % of control | T/C (dose: 400.0 mg/kg/injection, schedule: Q01DX009 (ip), vehicle: saline with Tween-80): 108 % of control and 110 % of control

Nc1cc2c3c(cccc3c1)C(=O)N(CCN1CCCC1)C2=O
T/C (dose: 6.25 mg/kg/injection, schedule: Q01DX009 (ip), vehicle: saline with Tween-80): 102 % of control | T/C (dose: 6.5 mg/kg/injection, schedule: Q01DX009 (ip), vehicle: saline with Tween-80): 122 % of control | T/C (dose: 12.1 mg/kg/injection, schedule: Q01DX009 (ip), vehicle: saline with Tween-80): 163 % of control | T/C [20]: 110 % of control | T/C (dose: 24.2 mg/kg/injection, schedule: Q01DX009 (ip), vehicle: saline with Tween-80): 160 % of control and 180 % of control | T/C (dose: 48.39 mg/kg/injection, schedule: Q01DX009 (ip), vehicle: saline with Tween-80): 86 % of control and 96 % of control | T/C [23]: 173 % of control | T/C [24]: 189 % of control

C/C(=N\Nc1nc2ccccc2s1)c1ccccn1
T/C [21]: 98 % of control | T/C [22]: 93 % of control | T/C [8]: 101 % of control and 91 % of control | T/C [9]: 104 % of control

CC(C)c1cc(N(C)C)cc(=S)[nH]1
T/C [12]: 104 % of control | T/C [13]: 94 % of control | T/C [14]: 102 % of control

Cln1c2c(c3ccccc31)CN(Cc1ccccc1)CC2
T/C [3]: 105 % of control | T/C [4]: 106 % of control | T/C (dose: 200.0 mg/kg/injection, schedule: Q01DX009 (ip), vehicle: Klucel (hydroxypropylcellulose) (HPC)): 97 % of control

CC(C)C(=NC(C)(C)C)Nc1ccccc1Cl
T/C [23]: 100 % of control | T/C [24]: 92 % of control | T/C [25]: 95 % of control
